From ChEMBL document CHEMBL1126567, “CC-1065 functional analogues possessing different electron-withdrawing substituents and leaving groups: synthesis, kinetics, and sequence specificity of reaction with DNA and biological evaluation” (J Med Chem, 1993)
Values after ≈ are worked out from the molar mass of the structure shown.

Test: In vitro reduction in viability of KB cells by modified crystal violet assay.
Assay type: functional, cell-based
Details: Homo sapiens
`CS(=O)(=O)OCC1CN(S(C)(=O)=O)c2cc(OCc3ccccc3)ccc21` (configuration not stated) showed an IC50 of 4.39 µg/mL (≈ 10.7 µM). Work on `CS(=O)(=O)N1CC2CC23C=CC(=O)C=C13` (configuration not stated) yielded an IC50 of 8.64 µg/mL (≈ 38.4 µM). Work on `COC(=O)c1cc2c(cc1O)N(S(C)(=O)=O)CC2CCl` (configuration not stated) yielded an IC50 of 8.38 µg/mL (≈ 26.2 µM). `CS(=O)(=O)OCC1CN(S(C)(=O)=O)c2cc(O)c([N+](=O)[O-])cc21` (configuration not stated) gave an IC50 of 0.764 µg/mL (≈ 2.09 µM). With `CS(=O)(=O)OCC1CN(S(C)(=O)=O)c2cc(O)ccc21` (configuration not stated) the IC50 was 3.69 µg/mL (≈ 11.5 µM). In the case of `CS(=O)(=O)OCC1CN(S(C)(=O)=O)c2cc(O)c(Br)cc21` (configuration not stated), the IC50 is reported as 0.308 µg/mL (≈ 0.769 µM). `CS(=O)(=O)N1CC(CCl)c2ccc(OCc3ccccc3)cc21` (configuration not stated) showed an IC50 of 6.32 µg/mL (≈ 18 µM). For `CS(=O)(=O)OCC1CN(S(C)(=O)=O)c2cc(OCc3ccccc3)c(Br)cc21` (configuration not stated), the IC50 was 5.21 µg/mL (≈ 10.6 µM). For `COC(=O)c1cc2c(cc1OCc1ccccc1)N(S(C)(=O)=O)CC2CCl` (configuration not stated), the IC50 was 7.14 µg/mL (≈ 17.4 µM). Compound `CS(=O)(=O)N1CC(CCl)c2cc(C=O)c(O)cc21` (configuration not stated) has an IC50 of 4.83 µg/mL (≈ 16.7 µM). For `CS(=O)(=O)N1CC(CCl)c2cc(Br)c(O)cc21` (configuration not stated), the IC50 was 3.8 µg/mL (≈ 11.2 µM). For `CS(=O)(=O)OCC1CN(S(C)(=O)=O)c2cc(OCc3ccccc3)c([N+](=O)[O-])cc21` (configuration not stated), the IC50 was 7.91 µg/mL (≈ 17.3 µM). `CS(=O)(=O)N1CC(CCl)c2cc(C=O)c(OCc3ccccc3)cc21` (configuration not stated) gave an IC50 of 3.24 µg/mL (≈ 8.53 µM). Work on `CS(=O)(=O)N1CC(CCl)c2cc(Br)c(OCc3ccccc3)cc21` (configuration not stated) yielded an IC50 of 6.18 µg/mL (≈ 14.3 µM). `CS(=O)(=O)N1CC(CCl)c2cc([N+](=O)[O-])c(O)cc21` (configuration not stated) showed an IC50 of 8.85 µg/mL (≈ 28.9 µM). Compound `CS(=O)(=O)N1CC(CCl)c2ccc(O)cc21` (configuration not stated) has an IC50 of 4.24 µg/mL (≈ 16.2 µM). `COc1cccc2c1C(=O)c1c(O)c3c(c(O)c1C2=O)C[C@@](O)(C(=O)CO)C[C@@H]3O[C@H]1C[C@H](N)[C@H](O)[C@H](C)O1` [DOXORUBICIN] gave an IC50 of 0.02 µg/mL (≈ 0.0368 µM).
